US5910575A, “Immunoassay and monoclonal antibodies for urinary cortisol” (Immunotech, priority 1995, dated 1999)

Legend:
[1] = molecular target: anti-cortisol monoclonal antibody Immu 473 (IMMU-473, CNCM I-1532), obtained against the immunogen cortisol-3-CMO (syn)-BSA; test: Displacement of the cortisol-3-CMO (anti)-[125I] iodohistamine tracer from the monoclonal antibody (liquid phase radioimmunoassay); format: binding, mouse
Method: (§1) Selection is carried out by a liquid phase radioimmunoassay technique starting with the culture supernatant. The supernatants possibly containing anti-cortisol antibodies are incubated with a solution of radioactive cortisol (tritiated cortisol or cortisol derivative labelled with radioactive iodine: cortisol-3-CMO (anti)-[^125 I] iodohistamine). If anti-cortisol antibodies are present, they will bind the radioactive steroid. After incubation with charcoal-dextran and centrifugation to remove the free radioactivity and all the small molecules not fixed to the antibodies, a sample of the supernatant (bound fraction) is removed and counted.
(§2) The affinities of the monoclonal antibodies are measured by displacement of the cortisol-3-CMO (anti)-[^125 I] iodohistamine tracer with the two labelling precursors: cortisol-3-CMO (anti)-histamine and cortisol-3-CMO (syn)-histamine. The affinity is estimated (in the form of the IC50 value) according to the concentration displacing half of the tracer, since the tracer is present in a small quantity compared with the other constituents.

[2] = molecular target: anti-cortisol monoclonal antibody Immu 482, obtained against the immunogen cortisol-3-CMO (syn)-BSA; test: as above; format: binding, mouse
Method: as §1, §2

[3] = tracer cortisol-3-CMO (anti)-[125I] iodohistamine, concentration displacing half of the tracer
[4] = IC50 of cortisol-3-CMO (anti)-histamine divided by IC50 of cortisol-3-CMO (syn)-histamine

SMILES: C[C@]12CC/C(=N\OCC(=O)NCCc3c[nH]cn3)C=C1CC[C@@H]1[C@@H]2[C@@H](O)C[C@@]2(C)[C@H]1CC[C@]2(O)C(=O)CO [Cortisol-3-CMO (anti)-histamine, cortisol-3-carboxymethyloxime (anti)-histamine]
- Displacement of the tracer by Cortisol-3-CMO (anti)-histamine IC50 [1, 3]: 0.496 ng/mL
- Displacement of the tracer by Cortisol-3-CMO (anti)-histamine IC50 [2, 3]: 0.468 ng/mL

SMILES: C[C@]12CC/C(=N/OCC(=O)NCCc3c[nH]cn3)C=C1CC[C@@H]1[C@@H]2[C@@H](O)C[C@@]2(C)[C@H]1CC[C@]2(O)C(=O)CO [Cortisol-3-CMO (syn)-histamine, cortisol-3-carboxymethyloxime (syn)-histamine]
- Ratio IC50 anti/IC50 syn [1, 4]: 2.73
- Displacement of the tracer by Cortisol-3-CMO (syn)-histamine IC50 [1, 3]: 0.182 ng/mL
- Ratio IC50 anti/IC50 syn [2, 4]: 2.66
- Displacement of the tracer by Cortisol-3-CMO (syn)-histamine IC50 [2, 3]: 0.176 ng/mL
